Reference: US12122761B2, “2-azaspiro[3.4]octane derivatives as M4 agonists” (NOVARTIS AG, priority 2019, dated 2024)

Columns and labels:
[1] = biological target: T1, human cloned CHRM3 receptor (M3_CHO cells) (Homo sapiens, UniProt P20309); test: CHRM3 Ca++ Flux Assay (agonist mode, FDSS 7000EX); type: cell-based; conditions: for Emax: Percent Activity measured to EC100 of Carbachol, read-out: M3 FDSS PA; for EC50: agonist mode, geometric mean if tested more than once, read-out: M3 FDSS EC50
T1 construct: expressed in transfected cells; host or cells: CHO-K1
Procedure, shortened: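 CHO-K1 cells stably expressing human M3 or M5 receptor were dye-loaded for at least 1 h in HBSS with 20 mM HEPES and 2.5 mM probenecid, then given 11-point compound doses in triplicate.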

[2] = biological target: T2, Cloned human M1 receptor (CHRM1) stably expressed in HEK293 cells (Homo sapiens, UniProt P11229); test: CHRM1 Ca++ Flux Assay (agonist mode, FDSS 7000EX); type: cell-based; conditions: for Emax: HEK293, Percent Activity, read-out: M1 FDSS PA; for EC50: geometric mean if tested more than once
T2 construct: expressed in transfected cells; host or cells: HEK293
T2 sequence (P11229 1-460): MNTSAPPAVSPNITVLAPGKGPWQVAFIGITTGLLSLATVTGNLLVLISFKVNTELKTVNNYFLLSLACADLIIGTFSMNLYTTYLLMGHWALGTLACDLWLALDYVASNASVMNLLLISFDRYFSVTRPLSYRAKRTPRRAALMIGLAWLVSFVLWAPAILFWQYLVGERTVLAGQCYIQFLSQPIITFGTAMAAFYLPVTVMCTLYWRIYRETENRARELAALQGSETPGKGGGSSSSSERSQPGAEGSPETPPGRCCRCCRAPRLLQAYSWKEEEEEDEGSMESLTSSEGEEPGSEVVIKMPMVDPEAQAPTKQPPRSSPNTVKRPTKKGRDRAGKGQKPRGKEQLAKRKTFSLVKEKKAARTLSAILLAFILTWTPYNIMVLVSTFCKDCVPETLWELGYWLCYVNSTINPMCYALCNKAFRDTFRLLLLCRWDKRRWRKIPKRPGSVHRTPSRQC
Procedure, shortened: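 Compounds tested as agonists at 11 concentrations in triplicate, with calcium traces captured over 3 minutes. Cells were HEK293 with stable human CHRM1 expression, plated overnight at 25K/well and loaded with calcium dye. Responses normalized to carbachol EC100 and fitted by four-parameter nonlinear regression.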

T1 sequence (P20309 whole entry): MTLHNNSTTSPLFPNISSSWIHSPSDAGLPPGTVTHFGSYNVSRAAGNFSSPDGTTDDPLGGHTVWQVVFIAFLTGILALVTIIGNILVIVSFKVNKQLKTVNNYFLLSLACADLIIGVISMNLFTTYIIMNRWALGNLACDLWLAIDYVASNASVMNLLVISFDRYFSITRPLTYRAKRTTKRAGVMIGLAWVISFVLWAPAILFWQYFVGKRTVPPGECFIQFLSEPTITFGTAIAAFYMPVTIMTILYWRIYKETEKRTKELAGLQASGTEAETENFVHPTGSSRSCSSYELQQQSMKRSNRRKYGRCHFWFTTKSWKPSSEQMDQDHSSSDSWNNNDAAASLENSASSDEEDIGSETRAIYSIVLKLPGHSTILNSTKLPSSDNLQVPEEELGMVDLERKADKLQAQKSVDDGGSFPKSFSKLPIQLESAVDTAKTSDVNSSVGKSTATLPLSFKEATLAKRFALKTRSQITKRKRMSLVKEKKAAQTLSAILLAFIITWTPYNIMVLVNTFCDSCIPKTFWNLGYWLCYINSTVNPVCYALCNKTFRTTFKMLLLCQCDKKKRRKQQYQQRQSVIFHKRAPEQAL

SMILES: O=C(C1COC1)N1CC2(CC[C@@H](N3CCC(c4ccccc4OCCC(F)(F)F)CC3)C2)C1 [Example 7GG, (R)-oxetan-3-yl(6-(4-(2-(3,3,3-trifluoropropoxy)phenyl)piperidin-1-yl)-2-azaspiro[3.4]octan-2-yl)methanone]
- Emax [1]: 0%
- EC50 [1]: > 25000 nM
- Emax [2]: 91%
- EC50 [2]: 39 nM

SMILES: O=C(C1COC1)N1CC2(CC[C@@H](N3CCC(c4ccccc4OC4CCC4)CC3)C2)C1 [Example 7H, (R)-(6-(4-(2-cyclobutoxyphenyl)piperidin-1-yl)-2-azaspiro[3.4]octan-2-yl)(oxetan-3-yl)methanone]
- Emax [1]: 0%
- EC50 [1]: > 25000 nM
- Emax [2]: 71%
- EC50 [2]: 9 nM

SMILES: COC(C)(C)COc1ccccc1C1CCN([C@@H]2CCC3(C2)CN(C(=O)C2COC2)C3)CC1 [Example 7HH, (R)-(6-(4-(2-(2-methoxy-2-methylpropoxy)phenyl)piperidin-1-yl)-2-azaspiro[3.4]octan-2-yl)(oxetan-3-yl)methanone]
- Emax [1]: 0%
- EC50 [1]: > 25000 nM
- Emax [2]: 82%
- EC50 [2]: 159 nM

SMILES: O=C(C1COC1)N1CC2(CC[C@@H](N3CCC(c4ccccc4OCC4CC4)CC3)C2)C1 [Example 7I, (R)-(6-(4-(2-(cyclopropylmethoxy)phenyl)piperidin-1-yl)-2-azaspiro[3.4]octan-2-yl)(oxetan-3-yl)methanone]
- Emax [1]: 0%
- EC50 [1]: > 25000 nM
- Emax [2]: 86%
- EC50 [2]: 15 nM

SMILES: O=C(C1COC1)N1CC2(CC[C@@H](N3CCC(c4ccccc4OCC4(C(F)(F)F)CC4)CC3)C2)C1 [Example 7II, (R)-oxetan-3-yl(6-(4-(2-((1-(trifluoromethyl)cyclopropyl)methoxy)phenyl)piperidin-1-yl)-2-azaspiro[3.4]octan-2-yl)methanone]
- Emax [1]: 0%
- EC50 [1]: > 25000 nM
- Emax [2]: 89%
- EC50 [2]: 103 nM

SMILES: O=C(C1COC1)N1CC2(CC[C@@H](N3CCC(c4ccccc4OCC(F)F)CC3)C2)C1 [Example 7JJ, (R)-(6-(4-(2-(2,2-difluoroethoxy)phenyl)piperidin-1-yl)-2-azaspiro[3.4]octan-2-yl)(oxetan-3-yl)methanone]
- Emax [1]: 0%
- EC50 [1]: > 25000 nM
- Emax [2]: 87%
- EC50 [2]: 12 nM

SMILES: CC(C)Oc1ccccc1C1CCN([C@@H]2CCC3(C2)CN(C(=O)C2COC2)C3)CC1 [Example 7K, (R)-(6-(4-(2-isopropoxyphenyl)piperidin-1-yl)-2-azaspiro[3.4]octan-2-yl)(oxetan-3-yl)methanone]
- Emax [1]: 0%
- EC50 [1]: > 25000 nM
- Emax [2]: 72%
- EC50 [2]: 24 nM

SMILES: O=C(C1COC1)N1CC2(CC[C@@H](N3CCC(c4ccccc4OCCC4COC4)CC3)C2)C1 [Example 7KK, (R)-oxetan-3-yl(6-(4-(2-(2-(oxetan-3-yl)ethoxy)phenyl)piperidin-1-yl)-2-azaspiro[3.4]octan-2-yl)methanone]
- Emax [1]: 0%
- EC50 [1]: > 25000 nM
- Emax [2]: 80%
- EC50 [2]: 11 nM

SMILES: CC(C)(O)COc1ccccc1C1CCN([C@@H]2CCC3(C2)CN(C(=O)C2COC2)C3)CC1 [Example 7L, (R)-(6-(4-(2-(2-hydroxy-2-methylpropoxy)phenyl)piperidin-1-yl)-2-azaspiro[3.4]octan-2-yl)(oxetan-3-yl)methanone]
- Emax [1]: 0%
- EC50 [1]: > 25000 nM
- Emax [2]: 85%
- EC50 [2]: 324 nM

SMILES: O=C(C1COC1)N1CC2(CC[C@@H](N3CCC(c4ccccc4OC(F)(F)F)CC3)C2)C1 [Example 12A, (R)-oxetan-3-yl(6-(4-(2-(trifluoromethoxy)phenyl)piperidin-1-yl)-2-azaspiro[3.4]octan-2-yl)methanone]
- Emax [1]: 0%
- EC50 [1]: > 25000 nM
- Emax [2]: 79%
- EC50 [2]: 8 nM
